SMILES strings stand for the structures. Entries after “also recorded” stand apart in the source; their conditions may differ.

One data set relates to curly-leaf pondweed. Kind of data set: Greenhouse concentration and exposure trial on curly-leaf pondweed. Format: in vivo, Potamogeton crispus. The text has this:
Error bars are +1 standard deviation (n=3).
Relative to control of invasive curly-leaf pondweed (or CLP), greenhouse studies of penoxsulam concentration and exposure requirements to achieve control of this species have documented that exposure periods of 3-7 days to 3-6 ppb penoxsulam can provide effective control. FIG. 10 presents results of a representative greenhouse trial of penoxsulam treatment of CLP. 13-cm diameter pots were filled with potting soil amended with Osmocote slow release fertilizer (14-14-14). Four apical CLP tips, harvested from a culture at the SRTC, were planted into each pot. A one-inch sand cap was placed over the potting soil and submersed into 54 gallon tubs to allow for grow-out. At 19 days after planting, the five tubs were treated with 0, 3, 6, 12, or 24 ppb penoxsulam. Three pots per treatment were pulled out and placed into a common grow-out tank at 1, 3, 7, and 14 days after treatment (DAT). Once the plants were allowed to grow out for 28 DAT the plants were harvested to determine aboveground dry weight (48 hours at 70° C.).

Another data set concerns fish. The settings on record: cited from earlier work.
The next data set deals with hydrilla. Conditions: Hydrilla verticillata (hydrilla), in vivo.
The test system of data set [1] is Eurasian watermilfoil. Description: 14C herbicide uptake study, shoot exposure. The class given is in vivo, Myriophyllum spicatum. The text has this:
Plants were allowed to equilibrate overnight prior to treatment. […] Plants were separated into aboveground and belowground segments. […] After drying, plants were weighed and biomass recorded.

The subject of data set [2] is Eurasian watermilfoil. Kind of data set: 14C-triclopyr uptake study, root exposure. The class given is in vivo, Myriophyllum spicatum. Conditions: root exposure, 200,000 dpm 14C-triclopyr. Here is the method:
Threshold absorption is reached within 12-24 hours for below ground tissue and near-maximum translocation to aboveground tissue is reached within 48 hours.
Prior to the experiment, plants were transplanted into glass jars filled with water plus a diluted growth media (Hoagland's Solution) and an eicosane wax plug was added to separate aboveground and belowground portions of the plant. Plants were allowed to equilibrate in this solution for 5 days. The root zone of each plant was treated with 200,000 dpm of 14C-triclopyr. Plants were then moved into 3 gallon tanks with other treated plants. Treatments were replicated 3 times and harvested at 12, 24, 48, 96, 192 HAT. Upon harvest, plants were separated into aboveground and belowground portions, dried, weighed and biomass recorded.

[3] abbreviates: shoot exposure, triclopyr 1,000 ppb, FIG. 1A, hydrilla and Eurasian milfoil not distinguished in text.

Experimental for hydrilla: Eurasian watermilfoil or hydrilla apical fragments were collected from infested field sites and grown in topsoil cultures in greenhouse conditions until needed for uptake experiments. For uptake studies, 15 cm apical fragments were planted in glass jars in topsoil with a sand cap. Plants were allowed to grow in 30 L tanks until rooted (˜14 days). Prior to experiments plants were removed from water and agarose gel (1.5%) was added to each sand cap surface in each jar to avoid root exposure. Three plants of each species were then placed in 4 L plastic containers containing 3 L of dechlorinated tap water. Plants were allowed to equilibrate overnight prior to treatment. During the study, plants were maintained at room temperature (25° C.) under grow lights. Six containers were treated for each experiment using the following aboveground (i.e., above gel layer and into shoot section) treatments of ^14C-radiolabeled herbicide: Fluridone—10 ppb, Penoxsulam—10 ppb, Triclopyr—1,000 ppb (10 ppb ^14C, remainder ‘cold’ material). All radiolabeled dosing of 10 ppb equated to 222,000 DPM of 14C herbicide. The selected total herbicide rates corresponded to typical use rates for these three aquatic herbicides. […] After drying, plants were weighed and biomass recorded. Plants were then burned using a biological sample oxidizer and radioactivity quantified using liquid scintillation spectroscopy (LSS). […]

Turning to `COc1cnc(OC)n2nc(NS(=O)(=O)c3c(OCC(F)F)cccc3C(F)(F)F)nc12` [penoxsulam, 2-(2,2-difluoroethoxy)-6-(trifluoromethyl)-N-(5,8-dimethoxy[1,2,4]triazolo-[1,5c]pyrimidin-2-yl)-benzenesulfonamide], in the data set with curly-leaf pondweed (3-6 ppb penoxsulam), the “exposure period providing effective control” value was 3 to 7 days. In addition, the “penoxsulam concentration providing effective control” value in the data set with curly-leaf pondweed (exposure periods of 3-7 days) is 3-6 ppb.

As to `CNC.O=C(O)COc1ccc(Cl)cc1Cl` [2,4-d dimethylamine salt], in the data set on fish (US EPA 2,4-D Re-Registration Eligibility Decision 2005), the “toxicity to creatures such as fish versus butoxyethyl ester of 2,4-d” value was “substantially less toxic”.

On to `CCN(CC)CC.O=C(O)COc1nc(Cl)c(Cl)cc1Cl` [Triclopyr triethylamine], for which, in the data set with fish (in vivo), the “toxicity to creatures such as fish versus butoxyethyl ester of triclopyr” value is “substantially less toxic”.

Take `O=C(O)COc1nc(Cl)c(Cl)cc1Cl` [triclopyr, 3,5,6-trichloro-2-pyridyloxyacetic acid]: the “time to maximum uptake” value with hydrilla was at most 96 h. For the same compound, in the data set on Eurasian watermilfoil [1] (Myriophyllum spicatum (Eurasian watermilfoil), in vivo), the “time to maximum uptake” value was at most 96 h. Besides, in the data set with Eurasian watermilfoil [1] (shoot exposure, Eurasian milfoil, FIG. 1B), the “dose-corrected maximum uptake versus fluridone and penoxsulam” value was “Greater dose-corrected uptake; also recorded: much greater on a dose-corrected basis”. For the same compound, in the data set on Eurasian watermilfoil [1] (setting [3]), the “time to threshold levels in aboveground tissues” value is 48 to 96 h and the “time to threshold levels in belowground tissues” value was in the range of 6 to 12 h. In the data set with Eurasian watermilfoil [2], the “time to near-maximum translocation to aboveground tissue” value is at most 48 h and the “time to threshold uptake in belowground tissue” value lay in the range of 12 to 24 h.

The values are drawn from US9137987B2, “Moderated release aquatic herbicide formulations” (SePro Corporation, priority 2011, dated 2015).
